Reference: patent US11072626B2, “Small molecule inhibitors of Galectin-3” (BRISTOL-MYERS SQUIBB COMPANY, priority 2017, dated 2021)

Biological target: His-tagged recombinant human Gal-3 (hGal-3) (Homo sapiens (Human), UniProt P17931)
Assay: Gal-3 HTRF assay (hGal-3 / B-ASF)
Format: binding
Details: 15 nM hGal-3, 15 nM B-ASF, table after Example 4, read-out: hGal3 IC50
Procedure: ASSAY BUFFER Composition: 25 mM HEPES, 100 mM NaCl, 0.005% Tween 20, 0.05% BSA prepared in sterile water (all reagents from Sigma)
Positive Control: 100% DMSO (1 μl)+His-tagged hGal-3 (20 μL)+B-ASF (20 μl)+Anti-His Terbium Antibody (5 μl)+Strep d2 Antibody (5 μl).
Negative Control: 100% DMSO (1 μl)+His-tagged hGal-3 (20μL)+Anti His Terbium Antibody (5 μl)+Strep d2 Aantibody (5 μl).
PROTOCOL: The Gal-3 assays were performed in 384 white Opti plates in three replicates at room temperature with gentle shaking at 250-300 rpm From the original stocks, […] working stock concentrations of His-tagged recombinant human Gal-3 (hGal-3) and that of B-ASF were prepared. From the working stock, 20 μl of hGal-3 (15 nM) and 20 μl B-ASF (15 nM) were added to the plates. In Negative Control, only hGal-3 was added. A concentration range of 50× working stocks were prepared for the compounds in 100% DMSO. Aliquots of 1 uL of the compounds were added to the wells and pre-incubated with 20 μl hGal-3 per well for 30 minutes Then 20 μl B-ASF were added and incubated for another 1 hour. To detect the signal, 5 μ(final conc. of 1.0 nM) terbium labelled Anti-His antibody was added and incubated for 30 min followed by adding 5 μ(final conc. of 20 nM) Streptavidin d2 and incubation for another 1 hour. The assay signal was detected using HTRF screen protocol (Excitation wavelength=340 nm, emission wavelength=615 nm/665 nm) on Envision 2104 Multilabel Reader. Data analysed using Toolset and Curve Master. Results are reported in the experimental section (IC50 in μM).

Chain of His-tagged recombinant human Gal-3 (hGal-3) (P17931 whole entry): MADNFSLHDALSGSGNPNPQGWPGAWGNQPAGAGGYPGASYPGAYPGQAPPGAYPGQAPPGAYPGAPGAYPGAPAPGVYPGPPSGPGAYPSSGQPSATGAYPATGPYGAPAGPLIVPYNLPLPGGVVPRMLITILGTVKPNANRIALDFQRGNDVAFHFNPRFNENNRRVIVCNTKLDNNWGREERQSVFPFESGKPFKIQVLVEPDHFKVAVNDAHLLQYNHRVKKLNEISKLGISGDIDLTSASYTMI

Compared with `O=C(O)CO[C@@H]1[C@@H](n2cc(-c3cc(F)c(F)c(F)c3)nn2)[C@@H](O)[C@@H](CO)O[C@@H]1Sc1ccc(Cl)c(Cl)c1` [compound 2, 2-(((2R,3R,4S,5R,6R)-2-((3,4-dichlorophenyl)thio)-5-hydroxy-6-(hydroxymethyl)-4-(4-(3,4,5-trifluorophenyl)-1H-1,2,3-triazol-1-yl)tetrahydro-2H-pyran-3-yl)oxy)acetic acid], `OC[C@H]1O[C@H](Sc2ccc(Cl)c(Cl)c2)[C@H](OCCN2CCOCC2)[C@@H](n2cc(-c3cc(F)c(F)c(F)c3)nn2)[C@H]1O` [compound 5, (2R,3R,4S,5R,6R)-6-((3,4-dichlorophenyl)thio)-2-(hydroxymethyl)-5-(2-morpholinoethoxy)-4-(4-(3,4,5-trifluorophenyl)-1H-1,2,3-triazol-1-yl)tetrahydro-2H-pyran-3-ol] is 4.2-fold higher in IC50: 46 nM for the first, 195 nM for the second. The first is the more potent here.

Same assay, conditions: 15 nM hGal-3, 15 nM B-ASF, table after Example 46, read-out: hGal3 IC50

Going from `COc1ccc(-c2cn([C@H]3[C@@H](O)[C@@H](CO)O[C@H](Sc4ccc(Cl)c(Cl)c4)[C@@H]3OCC(=O)O)nn2)cc1` [Example 47] to `O=C(O)CO[C@@H]1[C@@H](n2cc(-c3ccc(Cl)cc3)nn2)[C@@H](O)[C@@H](CO)O[C@@H]1Sc1ccc(Cl)c(Cl)c1` [Example 50], the IC50 falls from 1530 nM to 620 nM (2.5-fold). The second is the more potent here.

Compared with `COc1cccc(-c2cn([C@H]3[C@@H](O)[C@@H](CO)O[C@H](Sc4ccc(Cl)c(Cl)c4)[C@@H]3OCC(=O)O)nn2)c1` [Example 48], `Cc1cccc(-c2cn([C@H]3[C@@H](O)[C@@H](CO)O[C@H](Sc4ccc(Cl)c(Cl)c4)[C@@H]3OCC(=O)O)nn2)c1` [Example 49] is 1.8-fold higher in IC50: 740 nM for the first, 1340 nM for the second.

`O=C(O)CO[C@@H]1[C@@H](n2cc(-c3ccccc3F)nn2)[C@@H](O)[C@@H](CO)O[C@@H]1Sc1ccc(Cl)c(Cl)c1` [Example 51] and `Cc1ccccc1-c1cn([C@H]2[C@@H](O)[C@@H](CO)O[C@H](Sc3ccc(Cl)c(Cl)c3)[C@@H]2OCC(=O)O)nn1` [Example 53] are within 1.5-fold of each other in IC50: 1610 nM for the first, 1750 nM for the second.

Compared with `O=C(O)CO[C@@H]1[C@@H](n2cc(-c3cc(F)cc(F)c3)nn2)[C@@H](O)[C@@H](CO)O[C@@H]1Sc1ccc(Cl)c(Cl)c1` [Example 52], `O=C(O)CO[C@@H]1[C@@H](n2cc(-c3ccc(F)c(F)c3)nn2)[C@@H](O)[C@@H](CO)O[C@@H]1Sc1ccc(Cl)c(Cl)c1` [Example 55] is 3.6-fold lower in IC50: 250 nM for the first, 70 nM for the second. The second is the more potent here.

`Cc1cc(-c2cn([C@H]3[C@@H](O)[C@@H](CO)O[C@H](Sc4ccc(Cl)c(Cl)c4)[C@@H]3OCC(=O)O)nn2)ccc1F` [Example 54] and `O=C(O)CO[C@@H]1[C@@H](n2cc(-c3cccc(F)n3)nn2)[C@@H](O)[C@@H](CO)O[C@@H]1Sc1ccc(Cl)c(Cl)c1` [Example 57] are within 1.5-fold of each other in IC50: 230 nM for the first, 310 nM for the second.

Compared with `COC(=O)c1ccc(-c2cn([C@H]3[C@@H](O)[C@@H](CO)O[C@H](Sc4ccc(Cl)c(Cl)c4)[C@@H]3OCC(=O)O)nn2)cc1` [Example 56], `O=C(O)CO[C@@H]1[C@@H](n2cc(-c3ccc(F)cn3)nn2)[C@@H](O)[C@@H](CO)O[C@@H]1Sc1ccc(Cl)c(Cl)c1` [Example 58] is 8.8-fold lower in IC50: 7430 nM for the first, 840 nM for the second.

`O=C(O)CO[C@@H]1[C@@H](n2cc(-c3cc(F)ccn3)nn2)[C@@H](O)[C@@H](CO)O[C@@H]1Sc1ccc(Cl)c(Cl)c1` [Example 59] showed an IC50 of 5550 nM.

Same assay, conditions: 15 nM hGal-3, 15 nM B-ASF, three replicates, room temperature, read-out: hGal3 IC50

First: CO[C@@H]1[C@@H](n2cc(C(=O)NC3CC3)nn2)[C@@H](O)[C@@H](CO)O[C@@H]1Sc1ccc(Cl)c(Cl)c1 [Example 43, N-cyclopropyl-1-((2R,3R,4S,5R,6R)-2-((3,4-dichlorophenyl)thio)-5-hydroxy-6-(hydroxymethyl)-3-methoxytetrahydro-2H-pyran-4-yl)-1H-1,2,3-triazole-4-carboxamide]
Second: CO[C@@H]1[C@@H](n2cc(C(=O)N(C)C3CC3)nn2)[C@@H](O)[C@@H](CO)O[C@@H]1Sc1ccc(Cl)c(Cl)c1 [Example 44, N-cyclopropyl-1-((2R,3R,4S,5R,6R)-2-((3,4-dichlorophenyl)thio)-5-hydroxy-6-(hydroxymethyl)-3-methoxytetrahydro-2H-pyran-4-yl)-N-methyl-1H-1,2,3-triazole-4-carboxamide]
The IC50 of the first is 1.7-fold lower: 2900 nM for the first, 5000 nM for the second.

`CO[C@@H]1[C@@H](n2nncc2C(=O)O)[C@@H](O)[C@@H](CO)O[C@@H]1Sc1ccc(Cl)c(Cl)c1` [Example 45, 1-((2R,3R,4S,5R,6R)-2-((3,4-dichlorophenyl)thio)-5-hydroxy-6-(hydroxymethyl)-3-methoxytetrahydro-2H-pyran-4-yl)-1H-1,2,3-triazole-5-carboxylic acid] and `O=C(O)CO[C@@H]1[C@@H](n2cc(-c3ccccc3)nn2)[C@@H](O)[C@@H](CO)O[C@@H]1Sc1ccc(Cl)c(Cl)c1` [Example 46, 2-(((2R,3R,4S,5R,6R)-2-((3,4-dichlorophenyl)thio)-5-hydroxy-6-(hydroxymethyl)-4-(4-phenyl-1H-1,2,3-triazol-1-yl)tetrahydro-2H-pyran-3-yl)oxy)acetic acid] are within 1.5-fold of each other in IC50: 1520 nM for the first, 1360 nM for the second.

First: OC[C@H]1O[C@H](Sc2ccc(Cl)c(Cl)c2)C[C@@H](n2cc(-c3cc(F)c(F)c(F)c3)nn2)[C@H]1O [Example 60, (2R,3R,4R,6R)-6-((3,4-dichlorophenyl)thio)-2-(hydroxymethyl)-4-(4-(3,4,5-trifluorophenyl)-1H-1,2,3-triazol-1-yl)tetrahydro-2H-pyran-3-ol]
Second: O=S(=O)(c1ccc(Cl)c(Cl)c1)[C@@H]1C[C@@H](n2cc(-c3cc(F)c(F)c(F)c3)nn2)[C@@H](O)[C@@H](CO)O1 [Example 61, (2R,3R,4R,6R)-6-((3,4-dichlorophenyl)sulfonyl)-2-(hydroxymethyl)-4-(4-(3,4,5-trifluorophenyl)-1H-1,2,3-triazol-1-yl)tetrahydro-2H-pyran-3-ol]
The IC50 of the first is 14-fold higher: 2200 nM for the first, 160 nM for the second. The second is the more potent here.

For `O=C(O)CO[C@@H]1[C@@H](n2cnc(-c3cccc(F)c3)c2)[C@@H](O)[C@@H](CO)O[C@@H]1Sc1ccc(Cl)c(Cl)c1` [Example 63, 2-(((2R,3R,4S,5R,6R)-2-((3,4-dichlorophenyl)thio)-4-(4-(3-fluorophenyl)-1H-imidazol-1-yl)-5-hydroxy-6-(hydroxymethyl)tetrahydro-2H-pyran-3-yl)oxy)acetic acid], the IC50 was 1560 nM.
